The source of these data is article PMC5557545 (PLoS ONE, 2017).

Assay [1] deals with endonuclease from detergent disrupted viral particles. On the set-up: method as in PMID 7695269. Particulars: cited from earlier work.
Assay [2] relates to influenza virus transcription. Particulars: cited from earlier work.
Assay [3] addresses influenza A polymerase acidic protein (PA), full length, N-terminal 3x FLAG tag (influenza A virus H1N1 strain A/PR/8) (UniProt P03433). Nature of the assay: AUC.

One may read the IC50 as the concentration at which inhibition is half-maximal. Consider `O=C(O)C(=O)CC(=O)c1ccc(-c2ccccc2)cc1` [Compound A, 4-([1,1'-biphenyl]-4-yl)-2,4-dioxobutanoic acid], for which, in assay [1], the IC50 is 3.7 µM. For `O=C(O)C(=O)CC(=O)C1(Cc2ccc(Cl)cc2)CCN(Cc2ccc(Cl)cc2)CC1` [Compound B, 4-(1,4-bis(4-chlorobenzyl)piperidin-4-yl)-2,4-dioxobutanoic acid], the IC50 in assay [2] was 1100 nM. For the compound “influenza A polymerase acidic protein (PA), full length, N-terminal 3x FLAG tag (from UniProt P03433 1-716) (natural protein)”, the percent dimer in assay [3] came out at 10%.
